What was measured:
Format in all cases: cell-based
[1] = target: T1, PfCRT^Ecu1110 (Plasmodium falciparum, UniProt Q9N623, A220S/I356L/K76T/N326D); assay: [3H]CQ uptake into Xenopus oocytes, cis-inhibition by unlabelled solute; conditions: for PfCRT-mediated [3H]CQ transport, cis-inhibition (% PfCRTEcu1110 control): PfCRTEcu1110 oocytes, background [3H]CQ accumulation subtracted, normalised to oocyte type control; for [3H]CQ transport (% PfCRTEcu1110 control), cis-inhibition, PfCRTEcu1110: PfCRT-mediated component (background subtracted), sheet title says normalised to PfCRTDd2 control, mean ± SEM, SEM
Procedure, shortened: (§1)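 ND96, pH 5.5, 1.5 h, 27.5 °C; uptake direction acidic outside → oocyte cytosol, mimicking efflux from digestive vacuole. Ice-cold wash stop, 10% SDS lysis, scintillation counting. Ten oocytes/treatment, ≥4 independent experiments.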

[2] = target: T2, PfCRT^Dd2 (Plasmodium falciparum, UniProt Q9N623, A220S/I356T/K76T/M74I/N326S/N75E/Q271E/R371I); assay: as above; conditions: PfCRTDd2 oocytes, background [3H]CQ accumulation subtracted, normalised to oocyte type control
Procedure, shortened: as §1

[3] = target: T1, PfCRT^Ecu1110; assay: cell-based; conditions: for PfCRT-mediated [3H]CQ transport, trans-stimulation (% PfCRTEcu1110 control): PfCRTEcu1110 oocytes, normalised to oocyte type control; for [3H]CQ transport (% PfCRTDd2 control), trans-stimulation, PfCRTEcu1110: PfCRT-mediated component (background subtracted), sheet title says normalised to PfCRTDd2 control, mean ± SEM, SEM
Procedure, shortened: (§2)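 Oocytes (ten per treatment, ≥4 independent frogs/days) were preloaded by injecting VF-6 in 25 nL ND96 at pH 5.0, 5.5, 6.0 or 7.0, or Na^+-free choline buffer, then uptake run 1.5 h, 27.5 °C, ND96 pH 5.5 by default. Internal concentrations assumed ~400 nL oocyte volume.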

[4] = target: T2, PfCRT^Dd2; assay: cell-based; conditions: for PfCRT-mediated [3H]CQ transport, trans-stimulation (% PfCRTDd2 control): PfCRTDd2 oocytes, normalised to oocyte type control; for [3H]CQ transport (% PfCRTDd2 control), trans-stimulation, PfCRTDd2: PfCRT-mediated component (background subtracted), mean ± SEM, SEM
Procedure, shortened: as §2

[5] = target: PfCRT^3D7 (Plasmodium falciparum, UniProt Q8IBZ9); assay: cell-based; conditions: for PfCRT-mediated [3H]CQ transport, trans-stimulation (% PfCRT3D7 control): PfCRT3D7 oocytes, normalised to oocyte type control
Procedure, shortened: as §2

[6] = [test solute]i = 5 mM (intracellular)
[7] = [test solute]i = 45 mM (intracellular; 30 mM for some solutes due to solubility)
[8] = [test solute]i = 5 mM (injected)
[9] = [test solute]i = 45 mM (30 mM for some solutes due to solubility)

Chain of PfCRT^3D7 (Q8IBZ9 59-398): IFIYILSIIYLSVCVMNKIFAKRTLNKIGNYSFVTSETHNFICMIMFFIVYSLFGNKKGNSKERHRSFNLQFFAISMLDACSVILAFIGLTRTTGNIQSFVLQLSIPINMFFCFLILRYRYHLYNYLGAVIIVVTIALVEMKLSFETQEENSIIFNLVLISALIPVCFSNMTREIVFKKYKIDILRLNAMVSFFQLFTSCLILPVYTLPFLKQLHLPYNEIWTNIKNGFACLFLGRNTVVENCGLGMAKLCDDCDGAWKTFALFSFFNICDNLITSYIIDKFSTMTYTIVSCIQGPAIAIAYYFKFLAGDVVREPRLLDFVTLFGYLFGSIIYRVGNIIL
T2 sequence (Q9N623 whole entry A220S/I356T/K76T/M74I/N326S/N75E/Q271E/R371I): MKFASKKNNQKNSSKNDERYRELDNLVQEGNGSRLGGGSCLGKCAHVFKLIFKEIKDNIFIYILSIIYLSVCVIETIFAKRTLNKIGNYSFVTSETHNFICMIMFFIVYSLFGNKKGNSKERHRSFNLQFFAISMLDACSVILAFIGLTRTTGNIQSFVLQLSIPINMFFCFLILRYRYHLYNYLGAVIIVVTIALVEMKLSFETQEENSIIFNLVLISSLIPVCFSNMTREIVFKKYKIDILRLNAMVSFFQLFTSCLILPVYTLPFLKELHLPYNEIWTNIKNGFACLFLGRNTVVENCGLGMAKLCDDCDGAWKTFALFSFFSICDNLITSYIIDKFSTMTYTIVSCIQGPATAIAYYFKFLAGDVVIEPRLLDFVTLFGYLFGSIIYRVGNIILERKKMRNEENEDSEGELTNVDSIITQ
T1 sequence (Q9N623 whole entry A220S/I356L/K76T/N326D): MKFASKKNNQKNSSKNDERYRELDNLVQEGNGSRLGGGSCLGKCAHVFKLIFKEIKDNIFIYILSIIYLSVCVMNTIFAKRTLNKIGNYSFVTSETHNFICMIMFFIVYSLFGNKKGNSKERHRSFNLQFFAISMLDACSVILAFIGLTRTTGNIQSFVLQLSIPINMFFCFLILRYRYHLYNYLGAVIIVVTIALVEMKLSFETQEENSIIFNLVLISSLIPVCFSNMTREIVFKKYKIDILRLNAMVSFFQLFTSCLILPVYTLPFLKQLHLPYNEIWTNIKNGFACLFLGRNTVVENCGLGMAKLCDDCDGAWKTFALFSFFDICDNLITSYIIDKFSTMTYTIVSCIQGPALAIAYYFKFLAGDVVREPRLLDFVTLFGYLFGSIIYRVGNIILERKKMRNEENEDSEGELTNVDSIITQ

Row | Substance | PfCRT-mediated [3H]CQ transport, cis-inhibition (% PfCRTEcu1110 control) ([1]; [test solute] = 0.5 mM) | PfCRT-mediated [3H]CQ transport, cis-inhibition (% PfCRTEcu1110 control) ([1]; [test solute] = 1 mM) | PfCRT-mediated [3H]CQ transport, cis-inhibition (% PfCRTEcu1110 control) ([1]; [test solute] = 2 mM) | [3H]CQ transport (% PfCRTEcu1110 control), cis-inhibition, PfCRTEcu1110 ([1]; [test solute] = 1 mM) [% PfCRTEcu1110 control] | [3H]CQ transport (% PfCRTEcu1110 control), cis-inhibition, PfCRTEcu1110 ([1]; [test solute] = 2 mM) [% PfCRTEcu1110 control] | PfCRT-mediated [3H]CQ transport, cis-inhibition (% PfCRTDd2 control) ([2]; [test solute] = 0.5 mM) | PfCRT-mediated [3H]CQ transport, cis-inhibition (% PfCRTDd2 control) ([2]; [test solute] = 1 mM) | PfCRT-mediated [3H]CQ transport, cis-inhibition (% PfCRTDd2 control) ([2]; [test solute] = 2 mM) | PfCRT-mediated [3H]CQ transport, trans-stimulation (% PfCRTEcu1110 control) [3, 6] [% PfCRTEcu1110 control] | PfCRT-mediated [3H]CQ transport, trans-stimulation (% PfCRTEcu1110 control) [3, 7] [% PfCRTEcu1110 control] | [3H]CQ transport (% PfCRTDd2 control), trans-stimulation, PfCRTEcu1110 [3, 8] [% PfCRTEcu1110 control] | [3H]CQ transport (% PfCRTDd2 control), trans-stimulation, PfCRTEcu1110 [3, 9] [% PfCRTEcu1110 control] | PfCRT-mediated [3H]CQ transport, trans-stimulation (% PfCRTDd2 control) [4, 6] [% PfCRTDd2 control] | PfCRT-mediated [3H]CQ transport, trans-stimulation (% PfCRTDd2 control) [4, 7] [% PfCRTDd2 control] | [3H]CQ transport (% PfCRTDd2 control), trans-stimulation, PfCRTDd2 [4, 8] [% PfCRTDd2 control] | [3H]CQ transport (% PfCRTDd2 control), trans-stimulation, PfCRTDd2 [4, 9] [% PfCRTDd2 control] | PfCRT-mediated [3H]CQ transport, trans-stimulation (% PfCRT3D7 control) [5, 6] [% PfCRT3D7 control] | PfCRT-mediated [3H]CQ transport, trans-stimulation (% PfCRT3D7 control) [5, 7] [% PfCRT3D7 control] | [3H]CQ transport (% PfCRTEcu1110 control), cis-inhibition, PfCRTEcu1110 ([1]; [test solute] = 0.5 mM) [% PfCRTEcu1110 control] | [3H]CQ transport (% PfCRT3D7 control), trans-stimulation, PfCRT3D7 ([5]; SEM)
1 | DPENFR [DR-6] | 38 ± 1.3 | 35 ± 4.2 | 27 ± 0.1 | 11 ± 0.1 | 9.0 ± 0.02 | 38 ± 0.3 | 30 ± 1.0 | 17 ± 0.3 | 118 ± 0.6 | 127 ± 4.2 | 36 ± 1.4 | 38 ± 1.5 | 100 ± 3.7 | 112 ± 4.3 | 100 ± 3.7 | 112 ± 4.3 | 137 ± 4.6 | 188 ± 5.7 |  | 
2 | KEFTPPVQA [KA-9] | 48 ± 2.1 | 41 ± 2.1 | 30 ± 1.1 |  |  | 48 ± 2.0 | 32 ± 2.1 | 7 ± 0.1 | 98 ± 2.8 | 98 ± 2.0 |  |  | 98 ± 2.2 | 98 ± 1.7 |  |  | 130 ± 2.2 | 160 ± 3.9 |  | 
3 | LHVDPENF [LF-8] | 31 ± 1.1 | 22 ± 2.0 | 11 ± 0.1 |  |  | 37 ± 2.0 | 21 ± 0.5 | 11 ± 0.2 | 96 ± 2.1 | 95 ± 3.2 |  |  | 99 ± 3.1 | 98 ± 2.3 |  |  | 97 ± 2.2 | 98 ± 4.2 |  | 
4 | VHLTPEEK [VK-8] | 64 ± 2.7 | 49 ± 3.1 | 41 ± 2.3 |  |  | 69 ± 3.1 | 63 ± 5.2 | 25 ± 0.3 | 98 ± 2.9 | 100 ± 4.2 |  |  | 100 ± 3.4 | 98 ± 2.3 |  |  | 132 ± 3.2 | 166 ± 4.2 |  | 
5 | YIGSR [YR-5] | 71 ± 1.6 | 55 ± 1.4 | 49 ± 2.4 | 17 ± 0.4 | 15 ± 0.1 | 73 ± 3.9 | 58 ± 3.1 | 61 ± 2.9 | 98 ± 4.2 | 96 ± 3.5 | 30 ± 1.7 | 29 ± 1.3 | 94 ± 4.6 | 96 ± 4.1 | 94 ± 4.6 | 96 ± 4.1 | 98 ± 2.6 | 94 ± 2.1 | 22 ± 0.1 | 
6 | LSFPTTK [LK-7] | 47 ± 1.1 | 33 ± 2.4 | 17 ± 0.4 | 10 ± 0.4 | 5.0 ± 0.05 | 48 ± 2.6 | 37 ± 1.7 | 18 ± 0.7 | 97 ± 3.3 | 93 ± 3.7 | 29 ± 1.6 | 29 ± 1.8 | 98 ± 4.3 | 95 ± 3.3 | 98 ± 4.3 | 95 ± 3.3 | 93 ± 3.2 | 94 ± 3.6 | 15 ± 0.1 | 0.1 ± 0.01
